The values below come from ChEMBL document CHEMBL4265935, “Synthesis and evaluation of novel arctigenin derivatives as potential anti-Toxoplasma gondii agents” (Eur J Med Chem, 2018).

Series [1] relates to Toxoplasma gondii. The series can be described thus: Antiparasitic activity against Toxoplasma gondii RH tachyzoites by MTT assay. The series is classed as functional, organism-based. For orientation: Tetrazolium assays rely on reduction of a dye to a coloured formazan, in cell work by metabolically active cells.
The test system of series [2] is HeLa. Nature of the series: Cytotoxicity against human HeLa cells assessed as reduction in cell viability by MTT assay. The format is cell-based.
Series [3] can be described thus: Selectivity index, ratio of IC50 for human HeLa cells to ratio of IC50 for Toxoplasma gondii RH tachyzoites. The series is classed as toxicity. Particulars: HeLa cells versus Toxoplasma gondii RH tachyzoites, read-out: Ratio IC50.
Series [4] deals with Toxoplasma gondii. The series can be described thus: Antiparasitic activity against Toxoplasma gondii RH tachyzoites infected in human HeLa cells assessed as cell survival at 100 uM after 24 hrs by trypan blue assay (reference value: 20.8%). The format is functional.
Series [5] has as its system Toxoplasma gondii. Nature of the series: Antiparasitic activity against Toxoplasma gondii RH infected in Kunming mouse assessed as inhibition of number of intraperitoneal tachyzoite in abdominal cavity at 100 mg/kg, po qd administered via gavage for 4 consecutive days measured on day 5 by light microscopic analysis relative to control. Particulars: 120 h. The format is functional.

The subject of series [6] is Toxoplasma gondii. The series can be described thus: Antiparasitic activity against Toxoplasma gondii RH infected in Kunming mouse assessed as improvement of hepatomegaly at 100 mg/kg, po qd administered via gavage for 4 consecutive days measured on day 5. The series is classed as functional, organism-based.
The subject of series [7] is Toxoplasma gondii. The series can be described thus: Antiparasitic activity against Toxoplasma gondii RH infected in Kunming mouse assessed as reduction in serum ALT level at 100 mg/kg, po qd administered via gavage for 4 consecutive days measured on day 5. The format is functional, organism-based.
The test system of series [8] is Toxoplasma gondii. Nature of the series: Antiparasitic activity against Toxoplasma gondii RH infected in Kunming mouse assessed as reduction in serum AST level at 100 mg/kg, po qd administered via gavage for 4 consecutive days measured on day 5. The format is functional, organism-based.
Series [9] concerns Toxoplasma gondii. The series can be described thus: Antiparasitic activity against Toxoplasma gondii RH infected in Kunming mouse assessed as increase in GSH level in liver at 100 mg/kg, po qd administered via gavage for 4 consecutive days measured on day 5. The format is functional, organism-based.
Series [10] relates to Toxoplasma gondii. Nature of the series: Antiparasitic activity against Toxoplasma gondii RH infected in Kunming mouse assessed as increase in survival rate by measuring mortality day at 100 mg/kg, po qd administered via gavage for several consecutive days measured on day 12 (reference value: 9 to 11 days). The format is functional.
Series [11] relates to Toxoplasma gondii. Nature of the series: Antiparasitic activity against Toxoplasma gondii RH tachyzoites infected in human HeLa cells assessed as increase in cell survival at 100 uM after 24 hrs by trypan blue assay relative to spiramycin. The series is classed as functional.

Activity calls are given as the source filed them. The calls are words filed in the database; no cut-off is given here.

Turning to `COc1ccc(C[C@H]2COC(=O)[C@@H]2Cc2ccc(OCC(=O)Nc3ccccc3)c(OC)c2)cc1OC`, the figures for the IC50 in series [1] and in series [2] were 40.6 µM and not below 600 µM, respectively. Besides, the selectivity ratio in [3] was more than 14.8. In series [4], the survival at 100 µM was determined as 69.7%. Besides, the inhibition in vivo at 100 mg/kg in series [5] was found to be 82%. Moreover, the result in series [6], in series [8] and in series [9] was Active. Besides, the result in [7] was inactive. The mortality in [10] worked out at 12 days. Further, the Activity in series [11] amounted to 29.7%.

As a reminder, the IC50 is the point on the concentration scale where inhibition reaches its midpoint. The inhibition in vivo is the percentage by which the read-out fell short of the control.
